“Also recorded” adds a separate entry of the source. Read-outs that look alike come from different tables or passages of the source. No end group written: not given here.
What was measured:
HUVECs [1] = assay: endothelial cell migration assay, modified Boyden chamber, VEGF-induced; assay type: cell-based, human; details: for cell migration reduced: VEGF-induced, compared to untreated control; for inhibition of VEGF-induced migration of endothelial cells: 0.1˜100 μM
Procedure: In order to evaluate the effect of the peptides of the present invention on the cell migration, the present inventors conducted cell migration assay using modified Boyden chamber. HUVECs were treated with each peptide for 30 min and then, the cells were allowed to migrate toward VEGF (2˜5 ng/ml). After 5 h, the migrated cells were fixed and stained with hematoxilin and eosin. The stained cells were photographed and counted.

HUVECs [2] = assay: HUVEC proliferation, MTS assay; assay type: cell-based, human; details: for cell viability reduced: 100 μM, compared to untreated control, 5% FBS and 10 ng/ml bFGF; for inhibition of growth of endothelial cells: 5% FBS and bFGF stimulated
Procedure: Cell proliferation was measured by MTS assay. HUVECs were seeded to gelatin-coated 96-well plate at 1,000 cells/well and incubated in M199 supplement media for 48 h. After 48 h, cells were incubated in serum free M199 medium for 4 h, and then treated with each peptide at indicated concentrations for 30 min. Then, the cells were stimulated with 5% FBS and 10 ng/ml bFGF, and were incubated for 48 or 72 hr. Then, assessment of cell proliferation was done by MTS assay.

in vivo angiogenesis = assay: in vivo Matrigel plug assay, hemoglobin by Drabkin's reagent; set-up: species or system C57/BL6 mice; details: for plugs with excessive amount of hemoglobin exceeding 500 mg/dl / hemoglobin amount of Matrigel plug, median: 7 days; for hemoglobin amount / in vivo angiogenesis inhibition (words): compared to control group; for hemoglobin amount of Matrigel plug, median: mice, subcutaneous Matrigel with bFGF, VEGF, heparin and peptide
Procedure: In order to examine the anti-angiogenic activity of the respective peptides in vivo, Matrigel plug assay was performed. 7-week-old C57/BL6 mice (SLC, Japan) were injected subcutaneously in the midventral abdominal region with 0.6 ml of Matrigel containing the bFGF (100 ng/ml), VEGF (100 ng/ml) and heparin (15 unit) with or without peptide. After 7 days, mice were sacrificed by inhalation of CO2 gas and the Matrigel plugs were removed and photographed. To evaluate the formation of vessels, the amount of hemoglobin was quantified using Drabkin's reagent (Sigma). The Matrigel plug was sonicated in RBC lysis buffer (Sigma) and centrifuged at 14000 rpm for 20 min. The supernatant was mixed with Drabkin's reagent and incubated for 3 min. Then, absorbance was measured at 540 nm.

HUVECs [3] = assay: tube formation assay on Matrigel; assay type: cell-based, human; details: 100 μM; for tube formation inhibited/decreased: compared to control group, tube lengths
Procedure: Chilled Matrigel (150 μl, BD Bioscience) was placed in a pre-chilled 48-well plate and incubated for 30 min at 37° C. HUVECs were treated with each peptide for 30 min and then added to the top of the solidified Matrigel. After 19 h of incubation, the tubes formed were photographed. Images were analyzed using Image J <http://rsb.info.nih.gov/ij/> to determine tube lengths.
That is, the incubated HUVEC with a new serum-free medium was incubated for 2˜4 hr and harvested the cells. After treating the harvested cells at 100 μM with the respective peptides for 30 min, the cells on the hardened Matrigel was incubated for 11˜19 hr, while observing the degree of tube formation, and measured and calculated the lengths of the tubes formed. As a result, it was observed that all the tested peptides, while varying degrees, inhibited tube formation. […] UP3 decreased tube formation by 47%, and TP1 by approximately 37%.

[4] = system: MDAMB231 breast cancer cells; assay: cancer cell migration, modified Boyden chamber assay, EGF-induced; assay type: cell-based, human
Procedure: In order to investigate the effect of the respective peptides on cancer cell migration, modified Boyden chamber assay was conducted. MDAMB231 breast cancer cells have EGF receptor and have ability to migrate and metastasize. […] The above results also support that the peptides of the present invention can inhibit cancer cell metastasis.

[5] = system: A549 lung cancer cell line; assay type: cell-based, human; details: 48 hr, 5% FBS
Procedure: The Effect of the peptides on cancer cell proliferation was investigated using A549 lung cancer cell line. A549 cells were seeded to 96 well plate at 1,000 cells/well and incubated in DMEM medium containing 10% FBS for 48 h. After treatment of each peptide for 30 min, the proliferation of cancer cells was stimulated by 5% FBS alone. After each incubation time, MTS solution was added to each well and incubated for 2 h. Assessment of proliferation was determined by measurement of absorbance at 490 nm.

[6] = 100 μM, compared to untreated control

Compound | cell migration reduced (HUVECs [1]; 100 μM) | inhibition of VEGF-induced migration of endothelial cells (HUVECs [1]) | cell viability reduced (HUVECs [2]) | inhibition of growth of endothelial cells (HUVECs [2]) | plugs with excessive amount of hemoglobin exceeding 500 mg/dl (in vivo angiogenesis) | hemoglobin amount / in vivo angiogenesis inhibition (words) (in vivo angiogenesis) | hemoglobin amount of Matrigel plug, median (in vivo angiogenesis) [mg/dL] | tube formation inhibited/decreased (HUVECs [3]) | inhibition of migration of breast cancer cell [4] | cell migration decreased [4, 6] [%] | inhibition of proliferation of A549 cancer cells (words) [5] | also measured
CC(C)C[C@H](NC(=O)[C@@H](NC(=O)[C@@H](NC(=O)[C@H](C)NC(=O)[C@H](CO)NC(=O)[C@H](CC(N)=O)NC(=O)[C@H](Cc1c[nH]c2ccccc12)NC(=O)[C@@H]1CCCN1)[C@@H](C)O)C(C)C)C(=O)N[C@@H](CCC(N)=O)C(=O)N[C@@H](CCC(N)=O)C(=O)N[C@H](C(=O)N[C@@H](Cc1ccc(O)cc1)C(=O)N[C@@H](Cc1c[nH]cn1)C(=O)N[C@@H](C)C(=O)N[C@@H](Cc1c[nH]cn1)C(=O)O)[C@@H](C)O [UP3, PWNSATVLQQTYHAH] | 28.6% | concentration-dependently inhibited; also recorded: significantly inhibition at concentration of 10 μM or above | approximately 24% | inhibited growth of endothelial cells | showed such plugs with excessive hemoglobin | reduced median value | 4.8 | 47% | concentration-dependently inhibited the migration | 81 | – | hemoglobin amount / in vivo angiogenesis inhibition (words) (in vivo angiogenesis; listed as UP-3): decreased amount of hemoglobin
FGNGSAY [TP1, reference compound] | – | – | – | – | showed such plugs with excessive hemoglobin | – | – | approximately 37% | – | – | – | inhibition of migration of endothelial cells (HUVECs [1]; 100 μM): did not inhibit the migration of endothelial cells
PWCHVLKNRRLTWEY [TP7, PWCHVLKNRRLTWEY] | 31.4% | concentration-dependently inhibited | 65.1% | inhibited growth of endothelial cells; also recorded: strong inhibition effect | did not exhibit such plugs | decreased amount of hemoglobin | 37.3 | approximately 93% | concentration-dependently inhibited the migration | 66.3 | concentration-dependently inhibited proliferation | median value of hemoglobin amount reduced to (vs untreated control) (in vivo angiogenesis; without statistical significance): ~51%; inhibition of proliferation of A549 cancer cells (words) ([5]; listed as TP-7): inhibited proliferation of cancer cells concentration-dependently
PWCYVQVGLKPLVQE [UP7, PWCYVQVGLKPLVQE] | approximately 72% | concentration-dependently inhibited | 69.6% | inhibited growth of endothelial cells; also recorded: strong inhibition effect | did not exhibit such plugs | remarkably reduced hemoglobin amount | 16.3 | – | concentration-dependently inhibited the migration; also recorded: most potent inhibitory effect | 88 | concentration-dependently inhibited proliferation | hemoglobin amount / in vivo angiogenesis inhibition (words) (in vivo angiogenesis; listed as UP-7): decreased amount of hemoglobin; also recorded: most potent inhibitory activity against in vivo angiogenesis; inhibition of proliferation of A549 cancer cells (words) ([5]; listed as UP-7): inhibited proliferation of cancer cells concentration-dependently; inhibition of tube formation (HUVECs [3]): did not show any inhibitory effect; cell migration decreased ([4]; 10 μM): approximately 66%
PWNSMILIGKVYTAQ [TP3, PWNSMILIGKVYTAQ] | – | – | approximately 26.7% | inhibited growth of endothelial cells | showed such plugs with excessive hemoglobin | – | – | approximately 70% | concentration-dependently inhibited the migration | ~69.4 | concentration-dependently inhibited proliferation | cell migration reduced (HUVECs [1]; 0.1 μM): 15.4%; inhibition of proliferation of A549 cancer cells (words) ([5]; listed as TP-3): inhibited proliferation of cancer cells concentration-dependently; cell migration decreased ([4]; 1 μM, compared to untreated control): ~30%

Reference: patent US9121015B2, “Peptide having a vascularization-suppressing activity and a use therefor” (CATHOLIC UNIVERSITY INDUSTRY ACADEMIC COOPERATION FOUNDATION, priority 2010, dated 2015)
